Test results taken from ChEMBL document CHEMBL1201862, “PubChem BioAssay data set” (2004).
Calls of active or inactive are those of the source.

Tests used:
[1] = target: T1, Heat shock factor protein 1 (Mus musculus, UniProt P38532); assay: inhibition of MG132-induced HSE-luciferase signal, confirmation, cell-based, NIH3T3, luminescence, dose retest (AID 2382); assay type: functional;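 also: NIH3T3 fibroblasts with HSF1-driven luciferase reporter stressed by proteasome inhibitor MG132; luminescence from HSF1-driven luciferase expression after 8 hours of MG132 stress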
T1 sequence (P38532 whole entry): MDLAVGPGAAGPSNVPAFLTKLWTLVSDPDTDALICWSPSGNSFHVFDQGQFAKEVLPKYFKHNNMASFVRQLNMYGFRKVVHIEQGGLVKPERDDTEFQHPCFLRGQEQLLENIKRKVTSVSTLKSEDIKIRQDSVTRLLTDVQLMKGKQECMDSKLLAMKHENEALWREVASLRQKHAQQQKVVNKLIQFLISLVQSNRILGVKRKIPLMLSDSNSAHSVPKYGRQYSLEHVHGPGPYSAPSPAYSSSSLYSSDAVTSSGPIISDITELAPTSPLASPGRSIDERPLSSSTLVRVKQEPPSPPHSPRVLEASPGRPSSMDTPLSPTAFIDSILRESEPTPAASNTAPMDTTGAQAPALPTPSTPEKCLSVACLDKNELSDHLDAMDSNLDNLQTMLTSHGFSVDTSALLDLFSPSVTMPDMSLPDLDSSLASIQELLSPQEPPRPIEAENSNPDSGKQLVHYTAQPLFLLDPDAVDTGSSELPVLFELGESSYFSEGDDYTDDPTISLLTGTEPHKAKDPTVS

[2] = target: Cytochrome P450 2C19 (Homo sapiens, UniProt P33261); assay: Cytochrome panel assay with activity outcomes. Panel member name: p450-cyp2c19 Compounds with AC50 equal or less than 10 uM are considered active; assay type: functional
Sequence of Cytochrome P450 2C19 (P33261 whole entry): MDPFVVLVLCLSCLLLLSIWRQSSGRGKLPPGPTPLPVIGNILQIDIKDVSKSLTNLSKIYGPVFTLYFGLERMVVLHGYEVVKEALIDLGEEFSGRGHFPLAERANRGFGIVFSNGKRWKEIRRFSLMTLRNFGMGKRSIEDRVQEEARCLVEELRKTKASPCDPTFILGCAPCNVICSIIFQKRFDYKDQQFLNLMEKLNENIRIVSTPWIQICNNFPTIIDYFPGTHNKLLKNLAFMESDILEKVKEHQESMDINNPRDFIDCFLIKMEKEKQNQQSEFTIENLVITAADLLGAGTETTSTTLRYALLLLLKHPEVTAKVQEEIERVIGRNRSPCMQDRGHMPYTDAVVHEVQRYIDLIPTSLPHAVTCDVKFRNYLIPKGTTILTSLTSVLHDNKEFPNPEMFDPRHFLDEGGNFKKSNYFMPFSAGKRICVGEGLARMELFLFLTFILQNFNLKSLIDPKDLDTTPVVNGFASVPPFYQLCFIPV

[3] = target: Cytochrome P450 3A4 (Homo sapiens, UniProt P08684);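 also: CYP3A4 tested as one member of a cytochrome P450 panel screen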
Sequence of Cytochrome P450 3A4 (P08684 whole entry): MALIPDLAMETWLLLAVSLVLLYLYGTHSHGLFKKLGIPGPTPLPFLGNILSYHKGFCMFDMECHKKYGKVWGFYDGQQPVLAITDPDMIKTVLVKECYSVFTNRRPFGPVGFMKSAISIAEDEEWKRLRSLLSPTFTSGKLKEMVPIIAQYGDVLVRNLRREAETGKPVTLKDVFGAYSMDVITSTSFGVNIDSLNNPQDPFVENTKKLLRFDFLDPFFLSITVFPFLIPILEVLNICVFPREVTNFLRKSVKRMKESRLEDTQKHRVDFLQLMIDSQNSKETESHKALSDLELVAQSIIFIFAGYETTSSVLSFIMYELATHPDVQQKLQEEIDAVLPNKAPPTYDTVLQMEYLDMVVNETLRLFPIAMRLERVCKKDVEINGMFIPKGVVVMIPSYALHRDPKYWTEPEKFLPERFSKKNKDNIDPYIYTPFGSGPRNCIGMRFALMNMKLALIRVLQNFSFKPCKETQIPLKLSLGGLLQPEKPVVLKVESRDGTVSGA

[4] = target: Cytochrome P450 2C9 (Homo sapiens, UniProt P11712)
Sequence of Cytochrome P450 2C9 (P11712 whole entry): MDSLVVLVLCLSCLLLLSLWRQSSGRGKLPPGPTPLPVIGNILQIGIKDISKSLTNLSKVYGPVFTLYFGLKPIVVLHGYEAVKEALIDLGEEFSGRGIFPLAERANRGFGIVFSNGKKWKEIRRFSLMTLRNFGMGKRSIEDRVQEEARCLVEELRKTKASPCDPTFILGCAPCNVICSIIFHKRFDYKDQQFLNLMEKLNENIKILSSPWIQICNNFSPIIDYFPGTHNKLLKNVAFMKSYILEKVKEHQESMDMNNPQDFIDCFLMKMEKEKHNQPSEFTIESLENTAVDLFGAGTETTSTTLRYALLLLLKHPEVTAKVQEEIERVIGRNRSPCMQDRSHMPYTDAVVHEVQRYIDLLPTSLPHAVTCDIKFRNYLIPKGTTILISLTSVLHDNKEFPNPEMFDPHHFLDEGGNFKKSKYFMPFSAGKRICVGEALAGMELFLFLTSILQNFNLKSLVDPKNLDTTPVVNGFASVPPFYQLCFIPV

[5] = HEp-2 cell cytotoxicity, dose response, cytotoxicity control for RSV inhibitor project, HTS (AID 2410); assay type: functional; details: human respiratory syncytial virus
[6] = target: T2, Corticotropin-releasing factor receptor 2/Corticotropin-releasing factor-binding protein (Homo sapiens, UniProt P24387+Q13324); assay: activators of CRF receptor 2 with binding protein – uHTS hits, confirmation (AID 602473); assay type: functional; details: read-out: EC50_Mean
T2 sequence (Q13324 whole entry): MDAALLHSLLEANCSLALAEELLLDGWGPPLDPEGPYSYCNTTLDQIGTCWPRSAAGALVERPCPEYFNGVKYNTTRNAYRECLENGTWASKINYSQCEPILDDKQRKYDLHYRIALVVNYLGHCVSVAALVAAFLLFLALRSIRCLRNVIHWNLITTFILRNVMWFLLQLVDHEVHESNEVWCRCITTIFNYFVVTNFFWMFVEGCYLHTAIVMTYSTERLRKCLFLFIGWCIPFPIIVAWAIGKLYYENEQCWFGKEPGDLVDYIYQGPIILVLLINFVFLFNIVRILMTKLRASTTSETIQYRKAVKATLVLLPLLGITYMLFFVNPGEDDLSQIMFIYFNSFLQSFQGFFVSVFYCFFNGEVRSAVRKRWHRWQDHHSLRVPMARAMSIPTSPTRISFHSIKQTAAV
T2 sequence (P24387 whole entry): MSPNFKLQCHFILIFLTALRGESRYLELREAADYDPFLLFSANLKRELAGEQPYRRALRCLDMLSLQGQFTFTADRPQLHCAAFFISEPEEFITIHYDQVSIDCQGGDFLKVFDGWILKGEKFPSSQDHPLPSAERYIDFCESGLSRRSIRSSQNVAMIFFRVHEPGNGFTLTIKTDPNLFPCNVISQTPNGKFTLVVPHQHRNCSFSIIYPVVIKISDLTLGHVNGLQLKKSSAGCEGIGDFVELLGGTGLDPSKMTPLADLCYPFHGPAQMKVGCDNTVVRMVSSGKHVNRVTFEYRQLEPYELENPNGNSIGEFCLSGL

[7] = target: Cytochrome P450 2D6 (Homo sapiens, UniProt P10635);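 also: CYP2D6 member of a cytochrome P450 panel assay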
Sequence of Cytochrome P450 2D6 (P10635 whole entry): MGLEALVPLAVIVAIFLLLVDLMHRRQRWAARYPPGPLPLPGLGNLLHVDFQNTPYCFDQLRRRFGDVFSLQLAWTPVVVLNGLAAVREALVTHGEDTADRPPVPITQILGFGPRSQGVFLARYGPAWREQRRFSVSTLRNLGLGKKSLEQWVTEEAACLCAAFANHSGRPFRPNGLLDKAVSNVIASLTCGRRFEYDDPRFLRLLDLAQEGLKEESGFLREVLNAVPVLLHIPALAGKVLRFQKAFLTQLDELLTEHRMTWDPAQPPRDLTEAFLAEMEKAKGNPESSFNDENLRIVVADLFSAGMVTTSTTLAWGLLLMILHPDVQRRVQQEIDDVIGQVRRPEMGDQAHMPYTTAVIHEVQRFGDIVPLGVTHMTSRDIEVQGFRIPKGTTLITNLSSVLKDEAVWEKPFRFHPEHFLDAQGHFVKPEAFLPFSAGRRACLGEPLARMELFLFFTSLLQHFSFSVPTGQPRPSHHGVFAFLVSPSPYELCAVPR

[8] = target: T3, Cytochrome P450 1A2 (Homo sapiens, UniProt P05177);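 also: PubChem cytochrome P450 panel assay, CYP1A2 panel member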
T3 sequence (P05177 whole entry): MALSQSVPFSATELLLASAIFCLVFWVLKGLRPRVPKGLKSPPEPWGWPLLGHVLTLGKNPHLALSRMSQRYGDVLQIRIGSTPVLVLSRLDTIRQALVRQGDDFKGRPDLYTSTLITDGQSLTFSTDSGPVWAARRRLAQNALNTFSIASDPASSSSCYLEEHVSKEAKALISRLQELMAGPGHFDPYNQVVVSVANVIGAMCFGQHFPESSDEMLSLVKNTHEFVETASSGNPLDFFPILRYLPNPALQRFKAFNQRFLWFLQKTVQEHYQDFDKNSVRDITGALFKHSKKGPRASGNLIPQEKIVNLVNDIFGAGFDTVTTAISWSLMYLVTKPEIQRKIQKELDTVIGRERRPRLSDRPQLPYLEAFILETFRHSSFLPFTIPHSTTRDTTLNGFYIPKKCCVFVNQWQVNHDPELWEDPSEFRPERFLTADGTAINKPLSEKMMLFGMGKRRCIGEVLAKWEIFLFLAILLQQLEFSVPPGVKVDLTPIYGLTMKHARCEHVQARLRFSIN

[9] = cytotoxicity toward NIH3T3 fibroblasts, dose response, counter-screen, cell-based, ATP luminescence, mouse fibroblasts (AID 2010); assay type: functional;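 also: cells exposed to compound for about 90 hours before reading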
[10] = inhibitors of intracellular T. cruzi replication, confirmation, NIH3T3 host cells, beta-gal luminescence (AID 2044); assay type: functional, cell-based;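 also: intracellular parasites grown in NIH/3T3 mouse fibroblasts as host cells; luminescent beta-galactosidase reporter signal from transgenic T. cruzi replicating inside host cells; inhibitors lower the luminescence signal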
[11] = Luminescence Cell-Based Dose Retest to Confirm Inhibitors of Cancer Stem Cells. [Related pubchem assays (depositor defined):AID2717, AID2721]; assay type: functional; details: Homo sapiens

Cc1noc(/C=C/N(C)C)c1S(=O)(=O)N1CCN(c2ccc(F)cc2)CC1
EC50 [1]: > 195 µM (not active)

C/C(=N\O)c1ccc2[nH]ccc2c1
AC50 [2]: 11.2 µM (inconclusive) | AC50 [3]: 22.4 µM (inconclusive)

COc1ccc(NC(=O)N2CC[C@@]3(CCCN(C(=O)Oc4ccccc4)C3)C2)cc1
AC50 [2]: 15.8 µM (inconclusive) | AC50 [3]: 39.8 µM (inconclusive) | AC50 [4]: 25.1 µM (inconclusive)

COCCn1c(=O)c(-c2ccccc2)nc2cnc(Oc3ccccc3)nc21
AC50 [3]: 31.6 µM (inconclusive)

CC1=CC(=C2C(=O)c3ccccc3C2=O)C=C(C)O1
AC50 [3]: 14.1 µM (inconclusive)

CCC(CC)C(=O)NCCN1CCN(C(=O)C(CC)CC)CC1
AC50 [2]: 31.6 µM (inconclusive)

COC(=O)C1C(O)=C(/C=N/Cc2ccccc2)C(=O)CC1(C)C (centres undefined)
AC50 [2]: 39.8 µM (inconclusive) | AC50 [4]: 14.1 µM (inconclusive)

CCCCn1c(N)nc2ccccc21
EC50 [1]: > 195 µM (not active)

Cc1ccc(-c2nc3ccccc3c(=O)n2-c2ncccc2C)cc1
AC50 [2]: 28.2 µM (inconclusive) | AC50 [4]: 17.8 µM (inconclusive)

COc1cc(OC)c(C(=O)Nc2ccccc2-c2ccccc2)cc1OC
CC50 [5]: 18.9 µM (active)

N#Cc1nc(-c2ccc(OCc3ccccc3)cc2)oc1NCCN1CCOCC1
AC50 [3]: 3.98 µM (inconclusive)

CC(=O)OC[C@@H]1O[C@H](CCO/N=C(\C)CCN2CCc3nc(-c4ccccc4)c(-c4ccccc4)cc3C2)C=C[C@@H]1OC(C)=O
AC50 [3]: 3.98 µM (inconclusive) | AC50 [4]: 3.16 µM (inconclusive)

COc1ccc(-c2csc(-c3cccnc3)n2)cc1C
CC50 [5]: 38.8 µM (active)

Cc1ccc(N(CC(=O)NC2CCCCC2)C(=O)CNC(=O)c2ccco2)c(C)c1
EC50 [1]: > 195 µM (not active)

CCOc1ccc(S(=O)(=O)N2CCN(C(=O)c3cc(-c4ccccc4)nn3-c3ccccc3)CC2)cc1
CC50 [5]: 48 µM (active)

CSCCC(NC(=O)c1ccco1)C(=O)N1CC=C(c2ccccc2)CC1 (centres undefined)
EC50 [6]: 6.78 µM (active)

CCOc1ccc(N(CC(=O)NC2CCCCC2)C(=O)CCC(=O)Nc2nc(C)cs2)cc1
EC50 [1]: > 195 µM (not active)

CSc1cccc(NC(=O)Cn2cccc2)c1
AC50 [3]: 22.4 µM (inconclusive) | AC50 [7]: 14.1 µM (inconclusive)

Cc1cccc(N2CCN(C(=O)Cc3ccc(-n4c(=O)[nH]c5ccsc5c4=O)cc3)CC2)c1C
CC50 [5]: 30.2 µM (active)

COc1ccc(NC(=O)N2CCCC2C(=O)Nc2ccccc2)cc1 (centres undefined)
AC50 [2]: 20 µM (inconclusive) | AC50 [4]: 28.2 µM (inconclusive)

O=C(Nc1cccc(F)c1)N1CC[C@@]2(CCCN(C(=O)c3cccc(F)c3)C2)C1
AC50 [8]: 12.6 µM (inconclusive) | AC50 [3]: 15.8 µM (inconclusive)

Cc1ccc(C(C)C)c2c1C(c1ccc3c(c1)OCO3)CC(=O)O2 (centres undefined)
EC50 [6]: 4.51 µM (active)

CCOC(=O)C1=C(N)Oc2cc(O)ccc2C1c1ccc([N+](=O)[O-])cc1 (centres undefined)
CC50 [5]: 16.9 µM (active) | EC50 [9]: > 60 µM (not active) | EC50 [10]: 0.659 µM (active)

O=S(=O)(NC1CC1)c1ccc(S(=O)(=O)N2CCC(c3nc(O)c4nnn(Cc5cccc(F)c5)c4n3)CC2)cc1
CC50 [5]: 24.8 µM (active)

CC1(C)CC(=O)C2=C(C1)N(Cc1cccnc1)C(=O)C2(NC(=O)c1cccnc1)C(F)(F)F (centres undefined)
AC50 [2]: 15.8 µM (inconclusive) | AC50 [8]: 28.2 µM (inconclusive) | AC50 [4]: 0.0794 µM (inconclusive)

COc1c(CC=C(C)C)c(O)cc2oc(=O)c3c4ccc(O)cc4oc3c12 [GLYCYROL]
CC50 [5]: 26.5 µM (active)

CCOc1ccc(NC(=O)c2nnn(CC(=O)Nc3ccccc3OC)c2N)cc1
AC50 [2]: 3.55 µM (inconclusive)

Cn1c(=O)c(CCc2ccccc2)nc2cnc(N3CCNCC3)nc21
AC50 [3]: 0.0251 µM (inconclusive) | AC50 [4]: 25.1 µM (inconclusive)

C[C@H]1C[C@@H]2[C@H]3CCC4=CC(=O)C=C[C@@]4(C)[C@@]3(Cl)[C@@H](O)C[C@]2(C)[C@]1(OC(=O)c1ccco1)C(=O)CCl
AC50 [2]: 7.94 µM (inconclusive) | AC50 [8]: 5.01 µM (inconclusive) | AC50 [4]: 5.01 µM (inconclusive)

CCNc1ncc2nc(-c3cccs3)c(=O)n(Cc3ccc(F)cc3)c2n1
AC50 [2]: 20 µM (inconclusive) | AC50 [8]: 10 µM (inconclusive) | AC50 [4]: 31.6 µM (inconclusive) | AC50 [7]: 31.6 µM (inconclusive)

CCNc1ncc2ncc(=O)n(CCc3ccccc3)c2n1
AC50 [3]: 15.8 µM (inconclusive) | AC50 [4]: 15.8 µM (inconclusive) | AC50 [7]: 25.1 µM (inconclusive)

Cc1nn(C)c(Cl)c1CN1CCCC(CO)(Cc2cccc(Cl)c2)C1 (centres undefined)
CC50 [5]: 43.6 µM (active)

CCOc1ccc2ccccc2c1CNc1nnnn1CC
EC50 [1]: > 195 µM (not active)

COC(=O)C(NC(=O)c1ccccc1)=C1C=C(C)OC(C)=C1
AC50 [8]: 14.1 µM (inconclusive) | AC50 [3]: 22.4 µM (inconclusive)

CCOCCCNC(=O)c1cc(C)nn1-c1ccccc1
EC50 [1]: > 195 µM (not active)

CC1(C(=O)CSc2nc3ccccc3s2)CCC(=O)O1 (centres undefined)
AC50 [8]: 3.55 µM (inconclusive) | AC50 [3]: 14.1 µM (inconclusive)

Cc1nn(-c2ccccc2)c(N2CCCCC2)c1/C=N/O
AC50 [3]: 14.1 µM (inconclusive) | AC50 [4]: 7.08 µM (inconclusive) | AC50 [11]: 3.97 µM (active)

COc1ccc2c(c1)OC[C@H]1[C@H]2N2C(=O)CN(Cc3ccc(Cl)cc3)C(=O)[C@@]2(C)[C@H]1c1ccccc1
CC50 [5]: 14.7 µM (active)

CCOC(=O)c1nnn(CC(=O)NC(=O)Nc2ccc(F)cc2)c1C(=O)OCC
EC50 [1]: > 195 µM (not active)

CCc1ccc(/C=C2\Oc3cc(OC(=O)N4CCOCC4)ccc3C2=O)cc1
EC50 [1]: > 195 µM (not active)

Cc1ccc(C(=O)NCCNC(=O)c2ccc(F)cc2)cn1
EC50 [6]: > 53 µM (inactive)

N#Cc1cccc(NC(=O)N2CCCC3(CCN(C(=O)c4csnn4)CC3)C2)c1
AC50 [3]: 15.8 µM (inconclusive)

S=C(c1ccc(-c2ccc(Br)cc2)o1)N1CCCCC1
CC50 [5]: 29.3 µM (active)

Cc1cc(C(=O)C(=O)NC(C)C)c(C)n1-c1ccc([N+](=O)[O-])cc1
AC50 [2]: 0.0708 µM (inconclusive)
